The values that follow come from US20250034211A1, “C-TERMINAL EXTENDED P53 ACTIVATOR CROSSLINKED PEPTIDOMIMETIC MACROCYCLES AGAINST MDM2/MDMX” (Merck Sharp & Dohme LLC, priority 2021, published 2025).

The subject of data set [1] is p53 (HCT116 cells stably transfected with a p53 responsive β-lactamase reporter). The experiment in a line: p53 beta-lactamase reporter gene cellular functional assay. It is filed as cell-based. The procedure:
HCT116 cells were stably transfected with a p53 responsive β-lactamase reporter, and were seeded into a 384-well plate at a density of 8,000 cells per well. Cells were maintained in McCoy's 5A Medium with 10% fetal bovine serum ([…]), Blasticidin and Penicillin/Streptomycin. The cells were incubated overnight and followed by removal of cell growth media and replaced with Opti-MEM either containing 0% FBS or 10% FBS. Peptides were then dispensed to each well using a liquid handler, ECHO 555 and incubated for 4/16 hours. Final working concentration of dimethyl sulfoxide (DMSO) was 0.5%. β-Lactamase activity was detected using the ToxBLAzer Dual Screen (Invitrogen) as per manufacturer's instructions. Measurements were done using Envision multiplate reader (Perkin-Elmer). Maximum p53 activity was defined as the amount of β-lactamase activity induced by 50 μM azide-ATSP-7041 (stapled p53 peptide; Aileron Therapeutics, Inc.). This was determined as the highest amount of p53 activity induced by azide-ATSP-7041 by titration on HCT116 cells.

Data set [2] concerns the target T1, MDM2 (1-125; SEQ ID NO 14) (Homo sapiens, UniProt Q00987).
T1 construct: GST (N); His6 (internal); TEV cleavage site ENLYFQG (internal); made in house; host or cells: E. coli BL21 (DE3) Rosetta T1R
As to the kind of experiment: MDM2 binding assay (fluorescence anisotropy competition, FP). The procedure: [P] is the protein concentration (MDM2), [L] is the labeled peptide concentration, r is the anisotropy measured, r0 is the anisotropy of the free peptide, rb is the anisotropy of the MDM2-FAM-labeled peptide complex, Kd is the dissociation constant, [L]t is the total FAM labeled peptide concentration, and [P]t is the total MDM2 concentration. […] The competing molecules were then titrated against the complex of the FAM-labeled peptide and protein. Apparent Kd values were determined by fitting the experimental data to the equations shown below:
[L]st and [L]t denote labeled ligand and total unlabeled ligand input concentrations, respectively. Kd2 is the dissociation constant of the interaction between the unlabeled ligand and the protein. In all competition experiments, it is assumed that [P]t>[L]st, otherwise considerable amounts of free labeled ligand would always be present and would interfere with measurements. […] The FAM-labeled peptide was dissolved in dimethyl sulfoxide (DMSO) at 1 mM and diluted into experimental buffer. Readings were carried out with an Envision Multilabel Reader (PerkinElmer). […] All titrations were carried out in triplicate. Curve-fitting was carried out using Prism 4.0 (GraphPad). […] Negative control titrations of the ligands under investigation were also carried out with the fluorescently labeled peptide (in the absence of MDM2) to ensure no interactions were occurring between the ligands and the FAM-labeled peptide.
In general terms: In fluorescence polarisation assays a small probe gives low polarisation when free and higher when bound to something large.

The test system of data set [3] is Jump-In T-REx CHO-K1 BLA cells. The experiment in a line: Tetracycline beta-lactamase reporter gene assay (counter screen). It is filed as cell-based. The protocol: Based on Jump-In™ T-REx™ CHO-K1 BLA cells and contain a stably integrated β-lactamase under the control of an inducible CMV promoter. Cells were seeded into a 384-well plate a density of 4000 cells per well. Cells were maintained in Dulbecco's Minimal Eagle Medium (DMEM) with 10% fetal bovine serum (FBS), Blasticidin and Penicillin/Streptomycin. The cells were incubated for 24 hours, followed by cell media removal and replacement with Opti-MEM either containing 10% FBS or 0% FBS. Peptides were then dispensed to each well using a liquid handler, ECHO 555 and incubated for 4/16 hours. Final working concentration of DMSO was 0.5%. β-Lactamase activity was detected using the ToxBLAzer Dual Screen (Invitrogen) as per manufacturer's instructions. Measurements were carried out using Envision multiplate reader (Perkin Elmer). Counter Screen activity was defined as the amount of 0-lactamase activity induced by tetracycline.

The subject of a further data set is HCT116 cells. As to the kind of experiment: Lactate dehydrogenase release assay (LDH). Format: cell-based. The procedure:
HCT116 cells were seeded into a 384-well plate at a density of 8000 cells per well. Cells were maintained in McCoy's 5A Medium with 10% fetal bovine serum (FBS), Blasticidin and Penicillin/Streptomycin. The cells were incubated overnight followed by the removal of cell media and the addition of Opti-MEM Medium without FBS. Cells were then treated with peptides for 4/16 hours in Opti-MEM either in 10% FBS or serum free. Final concentration of DMSO was 0.5%. Lactate dehydrogenase release was detected using CytoTox-ONE Homogenous Membrane Integrity Assay Kit (Promega) as per manufacturer's instructions. Measurements were carried out using Tecan plate reader. Maximum LDH release was defined as the amount of LDH released induced by the lytic peptide (iDNA79) and used to normalize the results.

A short description of a further data set: Solubility (PBS, pH 7). To be noted: pH 7.

Converted amounts (≈) assume the structure as drawn. *1 amine or outer side, *2 acyl side, *3 side chain or, on linkers, in order; H or OH if unused. Where a SMILES comes first, the peptide text is derived from it. Bridges are numbered along the chain shown (N, C = ends). [ ]: non-standard residue; d: D form. ξ: configuration not given here. ξαMeNle(6-ylidene) = CC(CCCC=[*:3])(N[*:1])C(=O)[*:2]; X1 = CC(CCCCCCC=[*:3])(N[*:1])C(=O)[*:2]; Lys(N3) = [N-]=[N+]=NCCCC[C@H](N)C(=O)O; R8 = C=CCCCCCC[C@@](C)(N)C(=O)O; ξαMeE = CC(N)(CCC(=O)O)C(=O)O; Cba = N[C@@H](CC1CCC1)C(=O)O; S5 = C=CCCC[C@](C)(N)C(=O)O; βAla = NCCC(=O)O

T1 sequence (Q00987 with tags, fused parts or gaps): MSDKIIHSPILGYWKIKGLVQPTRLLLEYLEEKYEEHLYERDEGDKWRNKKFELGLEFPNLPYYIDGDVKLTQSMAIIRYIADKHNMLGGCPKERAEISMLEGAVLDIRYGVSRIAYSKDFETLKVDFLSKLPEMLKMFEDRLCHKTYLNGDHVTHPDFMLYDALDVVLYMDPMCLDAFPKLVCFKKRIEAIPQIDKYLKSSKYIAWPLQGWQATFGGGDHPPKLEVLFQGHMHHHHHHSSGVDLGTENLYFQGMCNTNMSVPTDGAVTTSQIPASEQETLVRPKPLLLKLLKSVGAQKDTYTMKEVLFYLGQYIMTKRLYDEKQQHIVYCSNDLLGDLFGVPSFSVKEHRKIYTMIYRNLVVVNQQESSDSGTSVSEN

Regarding `CC(=O)N[C@@H](CCCCN=[N+]=[N-])C(=O)NCCC(=O)N[C@@H](CC(C)C)C(=O)N[C@H](C(=O)N[C@@H](Cc1ccccc1)C(=O)N[C@]1(C)CCCCCCC=CCCC[C@@](C)(C(=O)N[C@@H](C)C(=O)N[C@@H](C)C(=O)N[C@@H](C)C(=O)N[C@@H](C)C(=O)N[C@@H](C)C(=O)N[C@@H](C)C(N)=O)NC(=O)[C@H](CC2CCC2)NC(=O)[C@H](CCC(N)=O)NC(=O)[C@H](C)NC(=O)[C@H](Cc2c[nH]c3ccccc23)NC(=O)[C@H](Cc2ccc(O)cc2)NC(=O)[C@H](CCC(=O)O)NC1=O)[C@@H](C)O` [Macrocycle 2, Ac-K(N3)-betaAla-L-T-F-X1a-E-Y-W-A-Q-Cba-X2a-AAAAAA-NH2 (olefin staple from X1a to X2a)] (Ac-[Lys(N3)][βAla]LTF[R8]EYWAQ[Cba][S5]AAAAAA-NH2; staple 6-13), the “HCT116 proliferation % Max” value in the data set with HCT116 (72 h, 10% serum) turned out to be 89%. The EC50 in the data set on HCT116 (read-out: cellular efficacy in cell proliferation HTC116 p53 positive control cell lines) was 0.57 µM; in data set [1] (0% serum at 4 hours), 0.143 µM; in data set [1] (10% serum at 16 hours), 0.749 µM; in data set [3] (0% FBS, 4 h) it was more than 50 µM; in data set [3] (10% FBS, 16 h), more than 50 µM; in the data set with HCT116 cells (0% FBS, 4 h), more than 50 µM. In addition, the EC50 with HCT116 cells (10% FBS, 16 h) was more than 50 µM. The “fold improvement of cellular activity in p53 cellular assay” value in data set [1] (versus Reference Macrocycle 1, both 0% serum at 4 hours and 10% serum at 16 hours) is given as approximately 3.5 fold. Besides, the “p53 null Ca Ski proliferation % Max” value in the data set on p53 null Ca Ski (72 h, 10% serum) was found to be 29%. For the same molecule, in the data set with p53 null Ca Ski (maximum assay concentration (50 uM)), the “% inhibition at maximum concentration in p53 null negative control cell line” value came out at 29%. For the same molecule, binding in data set [2] was put at a Kd of 0.0094 µM.

Take `CC(=O)N[C@@H](CCCCN=[N+]=[N-])C(=O)NCCC(=O)N[C@@H](CC(C)C)C(=O)N[C@H](C(=O)N[C@@H](Cc1ccccc1)C(=O)N[C@]1(C)CCCCCCC=CCCC[C@@](C)(C(=O)N[C@@H](C)C(=O)N[C@@H](C)C(=O)N[C@@H](Cc2ccccc2)C(=O)N[C@@H](C)C(=O)N[C@@H](C)C(=O)N[C@H](Cc2ccccc2)C(N)=O)NC(=O)[C@H](CC2CCC2)NC(=O)[C@H](CCC(N)=O)NC(=O)[C@H](C)NC(=O)[C@H](Cc2c[nH]c3ccccc23)NC(=O)[C@H](Cc2ccc(O)cc2)NC(=O)[C@H](CCC(=O)O)NC1=O)[C@@H](C)O` [Macrocycle 5, Ac-K(N3)-betaAla-L-T-F-X1a-E-Y-W-A-Q-Cba-X2a-AAFAA-(D-Phe)-NH2(olefinstaple from X1ato X2a)] (Ac-[Lys(N3)][βAla]LTF[R8]EYWAQ[Cba][S5]AAFAA[dF]-NH2; staple 6-13): in the data set “Solubility (PBS, pH 7)” (PBS), the solubility was 9 µM (≈ 20.9 µg/mL). Moreover, the Kd in data set [2] amounted to 0.056 µM. In “HPLC LogD”, the logD came out at 4.12. The EC50 was more than 50 µM in data set [3] (0% FBS, 4 h); more than 50 µM in data set [3] (10% FBS, 16 h); more than 50 µM in the data set on HCT116 cells (0% FBS, 4 h); more than 50 µM in the data set with HCT116 cells (10% FBS, 16 h).

Molecule `CC(=O)N[C@@H](CCCCN=[N+]=[N-])C(=O)NCCC(=O)N[C@@H](CC(C)C)C(=O)N[C@H](C(=O)N[C@@H](Cc1ccccc1)C(=O)N[C@]1(C)CCCCCCC=CCCC[C@@](C)(C(=O)N[C@@H](C)C(=O)N[C@@H](C)C(=O)N[C@@H](C)C(=O)N[C@@H](C)C(=O)N[C@@H](C)C(=O)N[C@@H](Cc2ccccc2)C(N)=O)NC(=O)[C@H](CC2CCC2)NC(=O)[C@H](CCC(N)=O)NC(=O)[C@H](C)NC(=O)[C@H](Cc2c[nH]c3ccccc23)NC(=O)[C@H](Cc2ccc(O)cc2)NC(=O)[C@H](CCC(=O)O)NC1=O)[C@@H](C)O` [Macrocycle 6, Ac-K(N3)-betaAla-L-T-F-X1a-E-Y-W-A-Q-Cba-X2a-AAAAAF-NH2 (olefin staple from X1a to X2a)] (Ac-[Lys(N3)][βAla]LTF[R8]EYWAQ[Cba][S5]AAAAAF-NH2; staple 6-13) gave a dissociation constant Kd in data set [2] of 0.0021 µM. Besides, the EC50 was more than 50 µM in data set [3] (0% FBS, 4 h); more than 50 µM in data set [3] (10% FBS, 16 h); more than 50 µM in the data set on HCT116 cells (0% FBS, 4 h); more than 50 µM with HCT116 cells (10% FBS, 16 h).

In turn, `CC(=O)N[C@@H](CCCCN=[N+]=[N-])C(=O)NCCC(=O)N[C@@H](CC(C)C)C(=O)N[C@H](C(=O)N[C@@H](Cc1ccccc1)C(=O)N[C@]1(C)CCCCCCC=CCCC[C@@](C)(C(=O)N[C@@H](C)C(=O)N[C@@H](C)C(=O)N[C@@H](Cc2ccccc2)C(=O)N[C@@H](C)C(=O)N[C@@H](C)C(=O)N[C@H](C)C(N)=O)NC(=O)[C@H](CC2CCC2)NC(=O)[C@H](CCC(N)=O)NC(=O)[C@H](C)NC(=O)[C@H](Cc2c[nH]c3ccccc23)NC(=O)[C@H](Cc2ccc(O)cc2)NC(=O)[C@H](CCC(=O)O)NC1=O)[C@@H](C)O` [Macrocycle 7, Ac-K(N3)-betaAla-L-T-F-X1a-E-Y-W-A-Q-Cba-X2a-AAFAA-(D-Ala)-NH2(olefinstaple from X1ato X2a)] (Ac-[Lys(N3)][βAla]LTF[R8]EYWAQ[Cba][S5]AAFAA[dA]-NH2; staple 6-13) yielded a solubility in “Solubility (PBS, pH 7)” (PBS) of 2 µM (≈ 4.49 µg/mL). In data set [2], binding was put at a Kd of 0.0042 µM. The logD in “HPLC LogD” was 3.59. Further, the EC50 is more than 50 µM in data set [3] (0% FBS, 4 h); more than 50 µM in data set [3] (10% FBS, 16 h); more than 50 µM in the data set on HCT116 cells (0% FBS, 4 h); more than 50 µM in the data set with HCT116 cells (10% FBS, 16 h).

`CC(=O)N[C@@H](CCCCN=[N+]=[N-])C(=O)NCCC(=O)N[C@@H](CC(C)C)C(=O)N[C@H](C(=O)N[C@@H](Cc1ccccc1)C(=O)NC1(C)CCCCCCC=CCCCC(C)(C(=O)N[C@@H](C)C(=O)N[C@@H](C)C(=O)N[C@@H](Cc2ccccc2)C(=O)N[C@@H](C)C(=O)NC(C)(CCC(=O)O)C(=O)N[C@@H](Cc2ccccc2)C(N)=O)NC(=O)[C@H](CC2CCC2)NC(=O)[C@H](CCC(N)=O)NC(=O)[C@H](C)NC(=O)[C@H](Cc2c[nH]c3ccccc23)NC(=O)[C@H](Cc2ccc(O)cc2)NC(=O)[C@H](CCC(=O)O)NC1=O)[C@@H](C)O` (stereo partly drawn) [Macrocycle 9, Ac-K(N3)-betaAla-L-T-F-X1a-E-Y-W-A-Q-Cba-X2a-AAFA-(alpha-methyl-Glu)-F-NH2(olefinstaple from X1ato X2a)] (Ac-[Lys(N3)][βAla]LTF[X1]EYWAQ[Cba][ξαMeNle(6-ylidene)]AAFA[ξαMeE]F-NH2; staple 6-13) gave a solubility in the data set “Solubility (PBS, pH 7)” of 153 µM (≈ 366 µg/mL). This molecule also displayed a chromatographic logD in the data set “HPLC LogD” of 2.93. Also, the EC50 in data set [3] (0% FBS, 4 h) is more than 50 µM; in data set [3] (10% FBS, 16 h), more than 50 µM.

A word on the % inhibition: it is the change of the read-out against control, counted positive when it falls. One may read the Kd as the concentration at which binding is half-saturated. Broadly, the solubility is the dissolved amount per volume that the medium holds. Lower therefore signals a poorly soluble substance. Usually logD stands for the decadic logarithm of the distribution of all forms, ionised or not, between an organic phase and buffer at a given pH. A high value points to a more lipophilic compound. A word on the chromatographic logD: it is lipophilicity estimated from chromatographic retention. A higher chromatographic logD goes with a more lipophilic compound.
